Data published in ChEMBL document CHEMBL5518203, “Rational Design of Benzobisheterocycle Metallo-β-Lactamase Inhibitors: A Tricyclic Scaffold Enhances Potency against Target Enzymes” (J Med Chem, 2024).
Values after ≈ are worked out from the molar mass of the structure shown. Active and inactive are the calls of the source. No cut-off for these calls is given here.

How the values were obtained:
[1] = Inhibition of his6-tagged L1 (unknown origin) expressed in Escherichia coli BL21-DE3 incubated for 16 hrs; set-up: species or system Enzyme inhibition
[2] = target: Metallo-beta-lactamase type 2 (Bacteria, UniProt C7C422); test: Inhibition of his6-tagged NDM-1 (unknown origin) expressed in Escherichia coli BL21-DE3 incubated for 16 hrs
Sequence of Metallo-beta-lactamase type 2 (C7C422 whole entry): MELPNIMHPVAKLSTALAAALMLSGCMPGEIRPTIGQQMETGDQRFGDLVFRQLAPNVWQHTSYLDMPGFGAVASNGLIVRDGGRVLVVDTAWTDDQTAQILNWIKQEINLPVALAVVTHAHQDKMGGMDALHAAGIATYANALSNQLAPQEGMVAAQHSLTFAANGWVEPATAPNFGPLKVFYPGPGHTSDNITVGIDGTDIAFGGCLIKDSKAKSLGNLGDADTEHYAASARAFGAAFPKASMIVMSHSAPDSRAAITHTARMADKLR

[3] = Inhibition of his6-tagged VIM-2 (unknown origin) expressed in Escherichia coli BL21-DE3 incubated for 16 hrs
[4] = Inhibition of his6-tagged IMP-1 (unknown origin) expressed in Escherichia coli BL21-DE3 incubated for 16 hrs; set-up: species or system Bacteria
[5] = Inhibition of his6-tagged SFH-1 (unknown origin) expressed in Escherichia coli BL21-DE3 incubated for 16 hrs; set-up: species or system Enzyme
[6] = Stability in human plasma assessed as half life by HPLC analysis; assay type: ADME, cell-free
L929 = test: Cytotoxicity against mouse L929 cells assessed as reduction in cell viability at 100 microg/ml incubated for 24 hrs by MTT assay; assay type: toxicity, cell-based; conditions: l929, 24 h
Klebsiella pneumoniae [7] = test: Antibacterial activity against Klebsiella pneumoniae 1.41 assessed as inhibition of bacterial growth by CLSI based broth microdilution method; assay type: functional
Klebsiella pneumoniae [8] = test: Antibacterial activity against Klebsiella pneumoniae 1.37 assessed as inhibition of bacterial growth by CLSI based broth microdilution method; assay type: functional
Klebsiella pneumoniae [9] = test: Antibacterial activity against Klebsiella pneumoniae LC82 assessed as inhibition of bacterial growth by CLSI based broth microdilution method; assay type: functional
Klebsiella pneumoniae [10] = test: Antibacterial activity against Klebsiella pneumoniae 6907 assessed as inhibition of bacterial growth by CLSI based broth microdilution method; assay type: functional
Enterobacter cloacae [11] = test: Antibacterial activity against Enterobacter cloacae 6.31 assessed as inhibition of bacterial growth by CLSI based broth microdilution method; assay type: functional
Klebsiella pneumoniae [12] = test: Antibacterial activity against Klebsiella pneumoniae 5639 assessed as inhibition of bacterial growth by CLSI based broth microdilution method; assay type: functional
Enterobacter cloacae [13] = test: Antibacterial activity against Enterobacter cloacae 1.28 assessed as inhibition of bacterial growth by CLSI based broth microdilution method; assay type: functional
Providencia rettgeri [14] = test: Antibacterial activity against Providencia rettgeri 1.27 assessed as inhibition of bacterial growth by CLSI based broth microdilution method; assay type: functional
Klebsiella pneumoniae [15] = test: Antibacterial activity against Klebsiella pneumoniae 7.15 assessed as inhibition of bacterial growth by CLSI based broth microdilution method; assay type: functional
Enterobacter cloacae [16] = test: Potentiation of meropenem induced antibacterial activity against Enterobacter cloacae 6.31 expressing NDM-1 assessed as meropenem MIC by CLSI based broth microdilution method; assay type: functional
Klebsiella pneumoniae [17] = test: Potentiation of meropenem induced antibacterial activity against Klebsiella pneumoniae 5639 expressing VIM-24 assessed as meropenem MIC by CLSI based broth microdilution method; assay type: functional
Klebsiella pneumoniae [18] = test: Potentiation of meropenem induced antibacterial activity against Klebsiella pneumoniae 1.37 expressing NDM-1 assessed as meropenem MIC by CLSI based broth microdilution method; assay type: functional
Enterobacter cloacae [19] = test: Potentiation of meropenem induced antibacterial activity against Enterobacter cloacae 1.28 expressing NDM-1 assessed as meropenem MIC by CLSI based broth microdilution method; assay type: functional
Klebsiella pneumoniae [20] = test: Potentiation of meropenem induced antibacterial activity against Klebsiella pneumoniae 7.15 expressing NDM-1 assessed as meropenem MIC by CLSI based broth microdilution method; assay type: functional
Klebsiella pneumoniae [21] = test: Potentiation of meropenem induced antibacterial activity against Klebsiella pneumoniae 1.41 expressing NDM-1 assessed as meropenem MIC by CLSI based broth microdilution method; assay type: functional
Escherichia coli = test: Potentiation of meropenem induced antibacterial activity against Escherichia coli 3.68 expressing NDM-1 assessed as meropenem MIC by CLSI based broth microdilution method; assay type: functional
Klebsiella pneumoniae [22] = test: Potentiation of meropenem induced antibacterial activity against Klebsiella pneumoniae LC82 expressing IMP-13 assessed as meropenem MIC by CLSI based broth microdilution method; assay type: functional
Providencia rettgeri [23] = test: Potentiation of meropenem induced antibacterial activity against Providencia rettgeri 1.27 expressing NDM-1 assessed as meropenem MIC by CLSI based broth microdilution method; assay type: functional
Klebsiella pneumoniae [24] = test: Potentiation of meropenem induced antibacterial activity against Klebsiella pneumoniae 6907 expressing VIM-2 assessed as meropenem MIC by CLSI based broth microdilution method; assay type: functional
[25] = target: Metallo-beta-lactamase type 2 (Bacteria) (UniProt C7C422); test: Inhibition of full length NDM-1 (unknown origin) expressed in Escherichia DH5alpha at 100 microg/ml measured at 1 to 5 hrs; conditions: dose 100.0 µg/ml, time 1-5 hrs
Sequence of Metallo-beta-lactamase type 2 (Bacteria) (C7C422 whole entry): as above

Structure (SMILES)	IC50 ([1]; read-out: IC50)	IC50 [2]	IC50 ([3]; read-out: IC50)	IC50 ([4]; read-out: IC50)	IC50 ([5]; read-out: IC50)	IC50 [5]	also measured
CCOC(=O)[C@@H]1CS[C@H]2CS[C@H](CS)N21	6.9 µM	2.7 µM	0.17 µM	0.26 µM	5.5 µM	–	–
NCCOC(=O)[C@@H]1CS[C@H]2CS[C@H](CS)N21	58 µM	53 µM	–	–	–	Not Active	–
SC[C@H]1SC[C@@H]2Nc3ccccc3N21 (relative stereo)	0.62 µM	–	1.4 µM	1.01 µM	3.7 µM	–	t1/2 [6]: 2.45 h; Activity (L929; at 100 µg/mL): 20%
O=C(Nc1ccccc1)[C@@H]1CS[C@H]2CS[C@H](CS)N21	15 µM	20 µM	–	–	–	Not Active	–
Nc1ccccc1NC(=O)[C@@H]1CS[C@H]2CS[C@H](CS)N21	32 µM	29 µM	–	–	–	Not Active	–
CC(C)(C)OC(=O)NCCOC(=O)[C@@H]1CS[C@H]2CS[C@H](CS)N21	5.4 µM	7.9 µM	–	–	–	Not Active	–
C[C@@H](O)[C@H]1C(=O)N2C(C(=O)O)=C(S[C@@H]3CN[C@H](C(=O)N(C)C)C3)[C@H](C)[C@H]12 [MEROPENEM]	–	–	–	–	–	–	MIC (Klebsiella pneumoniae [7]): 128 µg/mL (≈ 334 µM); MIC (Klebsiella pneumoniae [8]): 64 µg/mL (≈ 167 µM); MIC (Klebsiella pneumoniae [9]): 1 µg/mL (≈ 2.61 µM); MIC (Klebsiella pneumoniae [10]): 8 µg/mL (≈ 20.9 µM); MIC (Enterobacter cloacae [11]): 54 µg/mL (≈ 141 µM); MIC (Klebsiella pneumoniae [12]): 4 µg/mL (≈ 10.4 µM); MIC (Enterobacter cloacae [13]): 128 µg/mL (≈ 334 µM); MIC (Providencia rettgeri [14]): 128 µg/mL (≈ 334 µM); MIC (Klebsiella pneumoniae [15]): 128 µg/mL (≈ 334 µM)
SC[C@H]1SC[C@@H]2SCCN21 (racemic)	4.9 µM	1.2 µM	0.88 µM	1.09 µM	7.5 µM	–	–
Nc1nc(COC(=O)[C@@H]2CS[C@H]3CS[C@H](CS)N32)cs1	30 µM	27 µM	–	–	–	Not Active	–
O=C(O)[C@@H]1CS[C@H]2CS[C@H](CCS)N21	12 µM	3.1 µM	–	–	–	Not Active	IC50 [3]: Not Active; IC50 [4]: Not Active
O=C(NCc1ccccc1)[C@@H]1CS[C@H]2CS[C@H](CS)N21	8.9 µM	7.7 µM	–	–	–	Not Active	–
O=C(O)[C@@H]1CS[C@H]2CS[C@H](CS)N21	22 µM	13 µM	8.5 µM	17.3 µM	0.79 µM	–	t1/2 [6]: 0.383 h
SC[C@H]1SC[C@@H]2Sc3ccccc3N21 (racemic)	0.67 µM	0.29 µM	0.063 µM	0.088 µM	1.4 µM	–	MIC (Enterobacter cloacae [16]): 16 µg/mL; MIC (Klebsiella pneumoniae [17]): 0.125 µg/mL; MIC (Klebsiella pneumoniae [18]): 16 µg/mL; MIC (Enterobacter cloacae [19]): 8 µg/mL; t1/2 [6]: 2.62 h; MIC (Klebsiella pneumoniae [20]): 32 µg/mL; MIC (Klebsiella pneumoniae [21]): 8 µg/mL; MIC (Escherichia coli): 32 µg/mL; MIC (Klebsiella pneumoniae [22]): 0.125 µg/mL; Activity (L929; dose 100 µg/ml): Non-Toxic; MIC (Providencia rettgeri [23]): 32 µg/mL; MIC (Klebsiella pneumoniae [24]): 0.125 µg/mL; inhibition [25]: Active
SCC[C@H]1SC[C@@H]2SCCN21 (racemic)	7.8 µM	8.3 µM	1.2 µM	5.8 µM	55 µM	–	–
CCOC(=O)[C@]12CS[C@H](CS)N1[C@H](C(=O)O)CS2	–	13 µM	–	–	–	Not Active	IC50 [1]: Not Active; IC50 [3]: Not Active; IC50 [4]: Not Active
COc1ccc(CNC(=O)[C@@H]2CS[C@H]3CS[C@H](CS)N32)cc1	24 µM	52 µM	–	–	–	Not Active	–
